Measured values reported in patent US20100166848A1, “LIPOSOMAL FORMULATIONS FOR TREATING CANCER” (priority 2007, published 2010).

Columns and labels:
[1] = tested on: SW620 human colon carcinoma cell line; test: Antiproliferative MTT assay, 24 h exposure plus 48 h drug-free; assay type: cell-based; details: SW-620, SW620, 24 h exposure + 48 h drug-free medium, n=3, read-out: IC50 (5-FU concentration inhibiting 50% of cell growth)
Description: (§1) All experiments were carried out in the 5-FU-resistant, human colon carcinoma cell line SW620 (a.k.a CCL227) which overexpresses TS. Cells were maintained in RPMI supplemented with 10% fetal calf serum, […] and 1% kanamycin in a humidified CO2 incubator at 37° C. All experiments were performed in exponentially growing cells.
Cells were seeded at a density of 8×10^4 cells/well in 96-well plates. […] Next, drug was removed and the cells were allowed to grow in fresh medium for an additional 48 h. After 72 h of discontinuous exposure, cell viability was evaluated using the classic colorimetric MTT assay (Alley et al, 1988). The IC50 was defined as the 5-FU concentration inhibiting 50% of cell growth.

[2] = tested on: 5-FU-resistant SW620 human colorectal cell line; test: MTT testing of triple liposomal formulation, 72 continuous exposure; assay type: cell-based; details: SW-620
Source text: Cell sensitivity was estimated by calculating the respective IC50 of the different regimen (MTT testing, 72 continuous exposure).

SW620 tumor = test: In vivo efficacy, SW620 mouse xenograft model
Description: Four-week old, female Swiss, nude mice (n=5 per group, Charles River, Lyon, France) were subcutaneously inoculated with 1×10^6 SW620 cells on the right flank. […] Drugs were administered intraperitoneously on a 3×/week basis for three consecutive weeks (e.g., D1/D2/D3, D8/D9/D10 and D16/D17/D18). Tumor size was measured three times a week in three dimensions using Vernier calipers, and tumor weight (mg) was calculated using the following standard formula: mass=pi/6XlengthXwidthXheight (Waterhouse et al, 2005). Preliminary experiments performed with empty liposomes were conducted to confirm the absence of any in vivo antiproliferative activity. Animal weight was monitored as a marker of toxicity. Animals were euthanized whenever a 25% loss of initial weight was observed, or when tumors reached 2500 mg.

SW620 cells = test: 5-FU tumoral metabolism study with tritiated 5-FU; assay type: cell-based, human; details: SW620, 1 μM tritiated 5-FU, 3-6 h observation period
Description: as §1
Exponentially growing cells were exposed to 1 μM of tritiated 5-FU alone, combined with free d-Ino or as a liposomal preparation [5-FU+d-Ino]-L. After 3, 4 and 6 h exposure, cells were harvested, lysed into 70% methanol and cytosols were isolated by centrifugation (15000 rpm, 30 min) and stored at −80° C. until analysis. Separation of 5-FU and its main metabolites was achieved using a HP1090 HPLC system (Agilent, France) coupled to a Flo-One radioactive detector (Packard, France) and equipped with an RP18 column (Agilent, France), followed by elution with a K2HPO4-TBAN:Methanol gradient as described previously (Ciccolini et al, 2000b).

colorectal cancer = details: monotherapy; cited from earlier work

Structure (SMILES): O=c1[nH]cc(F)c(=O)[nH]1 [5-FU, 5-fluorouracil]
- IC50 [1]: 77 ± 6 µM
- IC50 [2]: 62 µM
- tumor size reduction at the conclusion of the study (SW620 tumor; 5-FU 50 mg/kg, d-Ino 120 mg/kg IP, 3x/week for three weeks): 28%
- effect on tumor growth, in words (SW620 tumor; as compared with untreated animals): failed to reduce tumor growth
- survival time (SW620 tumor; controls 16 days): 20 days
- increase in survival time compared to controls (SW620 tumor; mouse, in vivo): 25%
- anti-TS FdUMP synthesis (SW620 cells): 83 dpm/mg protein
- response rate (colorectal cancer): 20%
